# Patent US10392373B2, “Oxazole derivatives that inhibit Syk” (AB Science, priority 2015, dated 2019)
# Target: T1, SYK kinase (Homo sapiens, UniProt P43405)
# T1 construct: SYK kinase was purified as a full length protein in a baculovirus system near homogeneity; made in house
# Assay: In vitro Syk inhibition assay (Kinase TK HTRF, Cisbio)
# Type: biochemical
# Conditions: full length SYK purified from a baculovirus system; ATP at least twice the Km; room temperature; average of triplicate; read-out: IC50: Concentration inhibiting 50% of protein kinase
# Description: Protocol Inhibition Assays.
# SYK kinase was purified as a full length protein in a baculovirus system near homogeneity. All kinase assays were performed with the Kinase TK (tyrosine kinase) HTRF (Homogeneous Time Resolved Fluorescence) assay developed by Cisbio international. These assays were carried out at room temperature in 96-wells half-area white plates in a final volume of 25 μl of kinase buffer (10 mM MgCl2; 2 mM MnCl2; 50 mM Sodium-HEPES pH 7.8; BRIJ-35 0.01%, 1 μM substrate) containing ATP at a concentration of at least twice the Km for each enzyme and an appropriate amount of recombinant enzyme to ensure a linear reaction rate. Reactions were initiated upon introduction of the enzyme and terminated with the addition of one reaction volume (25 μl) of HTRF detection buffer. Plates were incubated for one hour at room temperature and the time resolved Fluorescence resonance energy transfer signal was measured in a Pherastar FS microplate reader (BMG Labtech). All data are the average of triplicate results with a standard deviation <10%.
row,SMILES,IC50 [nM]
1,"CCC1C(=O)NCCN1c1ncc(-c2cccc(Nc3nccc(C(C)C)n3)c2)o1 (centres unmarked) [Compound 025, 3-Ethyl-4-{5-[3-(4-isopropyl-pyrimidin-2-ylamino)-phenyl]-oxazol-2-yl}-piperazin-2-one]",≤ 100
2,"CCC1C(=O)NCCN1c1ncc(-c2cccc(Nc3nccc(C)n3)c2)o1 (centres unmarked) [Compound 020, 3-Ethyl-4-{5-[3-(4-methyl-pyrimidin-2-ylamino)-phenyl]-oxazol-2-yl}-piperazin-2-one]",≤ 100
3,"CCc1ccnc(Nc2cccc(-c3cnc(N4CCNC(=O)C4C)o3)c2)n1 (centres unmarked) [Compound 004, 4-{5-[3-(4-Ethyl-pyrimidin-2-ylamino)-phenyl]-oxazol-2-yl}-3-methyl-piperazin-2-one]",≤ 100
4,"CC1C(=O)NCCN1c1ncc(-c2cc(CN3CCOCC3)cc(Nc3nccc(C#N)n3)c2)o1 (centres unmarked) [Compound 008, 2-{3-[2-(2-Methyl-3-oxo-piperazin-1-yl)-oxazol-5-yl]-5-(morpholin-4-ylmethyl)-phenylamino}-pyrimidine-4-carbonitrile]",≤ 100
5,"CC1(C)C(=O)NCCN1c1ncc(-c2cccc(Nc3nccc(N4CCCC4)n3)c2)o1 [Compound 032, 3,3-Dimethyl-4-{5-[3-(4-pyrrolidin-1-yl-pyrimidin-2-ylamino)-phenyl]-oxazol-2-yl}-piperazin-2-one]",1000 to 10000
6,"CCc1ccnc(Nc2cccc(-c3cnc(N4CCNC(=O)C4C(C)C)o3)c2)n1 (centres unmarked) [Compound 038, 4-{5-[3-(4-Ethyl-pyrimidin-2-ylamino)-phenyl]-oxazol-2-yl}-3-isopropyl-piperazin-2-one]",≤ 100
7,"Cc1ccnc(Nc2cccc(-c3cnc(N4CCNC(=O)[C@H]4C)o3)c2)n1 [Compound 007, (R)-3-Methyl-4-{5-[3-(4-methyl-pyrimidin-2-ylamino)-phenyl]-oxazol-2-yl}-piperazin-2-one]",≤ 100
8,"CCCc1cnc(Nc2cccc(-c3cnc(N4CCNC(=O)C4C)o3)c2)nc1 (centres unmarked) [Compound 006, 3-Methyl-4-{5-[3-(5-propyl-pyrimidin-2-ylamino)-phenyl]-oxazol-2-yl}-piperazin-2-one]",1000 to 10000
9,"Cc1ccnc(Nc2cc(CN3CCCC3)cc(-c3cnc(N4CCNC(=O)C4(C)C)o3)c2)n1 [Compound 045, 3,3-Dimethyl-4-{5-[3-(4-methyl-pyrimidin-2-ylamino)-5-pyrrolidin-1-ylmethyl-phenyl]-oxazol-2-yl}-piperazin-2-one]",100 to 1000
10,"CC1(C)C(=O)NCCN1c1ncc(-c2cccc(Nc3nccc(C4CC4)n3)c2)o1 [Compound 042, 4-{5-[3-(4-Cyclopropyl-pyrimidin-2-ylamino)-phenyl]-oxazol-2-yl}-3,3-dimethyl-piperazin-2-one]",≤ 100
11,"COc1ccnc(Nc2cccc(-c3cnc(N4CCNC(=O)C4(C)C)o3)c2)n1 [Compound 026, 4-{5-[3-(4-Methoxy-pyrimidin-2-ylamino)-phenyl]-oxazol-2-yl}-3,3-dimethyl-piperazin-2-one]",≤ 100
12,"CCc1cnc(Nc2cccc(-c3cnc(N4CCNC(=O)C4C)o3)c2)nc1 (centres unmarked) [Compound 016, 4-{5-[3-(5-Ethyl-pyrimidin-2-ylamino)-phenyl]-oxazol-2-yl}-3-methyl-piperazin-2-one]",1000 to 10000
13,"Cc1ccnc(Nc2cccc(-c3cnc(N4CCNC(=O)[C@@H]4C(C)C)o3)c2)n1 [Compound 039, (S)-3-Isopropyl-4-{5-[3-(4-methyl-pyrimidin-2-ylamino)-phenyl]-oxazol-2-yl}-piperazin-2-one]",100 to 1000
14,"Cc1ccnc(Nc2cccc(-c3cnc(N4CCNC(=O)[C@H]4C(C)C)o3)c2)n1 [Compound 040, (R)-3-Isopropyl-4-{5-[3-(4-methyl-pyrimidin-2-ylamino)-phenyl]-oxazol-2-yl}-piperazin-2-one]",≤ 100
15,"CC(C)c1ccnc(Nc2cccc(-c3cnc(N4CCNC(=O)C4(C)C)o3)c2)n1 [Compound 023, 4-{5-[3-(4-Isopropyl-pyrimidin-2-ylamino)-phenyl]-oxazol-2-yl}-3,3-dimethyl-piperazin-2-one]",≤ 100
16,"CC1(C)C(=O)NCCN1c1ncc(-c2cccc(Nc3nccc(N4CCOCC4)n3)c2)o1 [Compound 030, 3,3-Dimethyl-4-{5-[3-(4-morpholin-4-yl-pyrimidin-2-ylamino)-phenyl]-oxazol-2-yl}-piperazin-2-one]",100 to 1000
17,"Cc1ccnc(Nc2cccc(-c3cnc(N4CCNC(=O)C4(C)C)o3)c2)n1 [Compound 002, 3,3-Dimethyl-4-{5-[3-(4-methyl-pyrimidin-2-ylamino)-phenyl]-oxazol-2-yl}-piperazin-2-one]",≤ 100
18,"Cc1ccnc(Nc2cccc(-c3cnc(N4CCNC(=O)C4C(C)C)o3)c2)n1 (centres unmarked) [Compound 003, 3-Isopropyl-4-{5-[3-(4-methyl-pyrimidin-2-ylamino)-phenyl]-oxazol-2-yl}-piperazin-2-one]",≤ 100
19,"CC1C(=O)NCCN1c1ncc(-c2cccc(Nc3nccc(-c4cccs4)n3)c2)o1 (centres unmarked) [Compound 010, 3-Methyl-4-{5-[3-(4-thiophen-2-yl-pyrimidin-2-ylamino)-phenyl]-oxazol-2-yl}-piperazin-2-one]",≤ 100
20,"CCc1ccnc(Nc2cccc(-c3cnc(N4CCNC(=O)C4(C)C)o3)c2)n1 [Compound 037, 4-{5-[3-(4-Ethyl-pyrimidin-2-ylamino)-phenyl]-oxazol-2-yl}-3,3-dimethyl-piperazin-2-one]",≤ 100

# Further lines, results first:
row,IC50 [nM],SMILES
1,≤ 100,"CC(C)c1ccnc(Nc2cccc(-c3cnc(N4CCNC(=O)C4C)o3)c2)n1 (centres unmarked) [Compound 021, 4-{5-[3-(4-Isopropyl-pyrimidin-2-ylamino)-phenyl]-oxazol-2-yl}-3-methyl-piperazin-2-one]"
2,≤ 100,"Cc1ccnc(Nc2cc(CN3CCOCC3)cc(-c3cnc(N4CCNC(=O)C4(C)C)o3)c2)n1 [Compound 005, 3,3-Dimethyl-4-{5-[3-(4-methyl-pyrimidin-2-ylamino)-5-morpholin-4-ylmethyl-phenyl]-oxazol-2-yl}-piperazin-2-one]"
3,≤ 100,"Cc1ccnc(Nc2cccc(-c3cnc(N4CCNC(=O)[C@@H]4C)o3)c2)n1 [Compound 019, (S)-3-Methyl-4-{5-[3-(4-methyl-pyrimidin-2-ylamino)-phenyl]-oxazol-2-yl}-piperazin-2-one]"
4,100 to 1000,"CC1C(=O)NCCN1c1ncc(-c2cccc(Nc3nccc(N4CCOCC4)n3)c2)o1 (centres unmarked) [Compound 027, 3-Methyl-4-{5-[3-(4-morpholin-4-yl-pyrimidin-2-ylamino)-phenyl]-oxazol-2-yl}-piperazin-2-one]"
5,1000 to 10000,"CC(C)C1C(=O)NCCN1c1ncc(-c2cccc(Nc3nccc(N4CCN(C)CC4)n3)c2)o1 (centres unmarked) [Compound 035, 3-Isopropyl-4-(5-{3-[4-(4-methyl-piperazin-1-yl)-pyrimidin-2-ylamino]-phenyl}-oxazol-2-yl)-piperazin-2-one]"
6,≤ 100,"CC(C)C1C(=O)NCCN1c1ncc(-c2cccc(Nc3nccc(C4CC4)n3)c2)o1 (centres unmarked) [Compound 043, 4-{5-[3-(4-Cyclopropyl-pyrimidin-2-ylamino)-phenyl]-oxazol-2-yl}-3-isopropyl-piperazin-2-one]"
7,≤ 100,"CC1C(=O)NCCN1c1ncc(-c2cccc(Nc3nccc(C4CC4)n3)c2)o1 (centres unmarked) [Compound 041, 4-{5-[3-(4-Cyclopropyl-pyrimidin-2-ylamino)-phenyl]-oxazol-2-yl}-3-methyl-piperazin-2-one]"
8,≤ 100,"COc1ccnc(Nc2cccc(-c3cnc(N4CCNC(=O)C4C)o3)c2)n1 (centres unmarked) [Compound 013, 4-{5-[3-(4-Methoxy-pyrimidin-2-ylamino)-phenyl]-oxazol-2-yl}-3-methyl-piperazin-2-one]"
9,100 to 1000,"CC1C(=O)NCCN1c1ncc(-c2cccc(Nc3nccc(N4CCCC4)n3)c2)o1 (centres unmarked) [Compound 028, 3-Methyl-4-{5-[3-(4-pyrrolidin-1-yl-pyrimidin-2-ylamino)-phenyl]-oxazol-2-yl}-piperazin-2-one]"
10,1000 to 10000,"CC(C)C1C(=O)NCCN1c1ncc(-c2cccc(Nc3nccc(N4CCOCC4)n3)c2)o1 (centres unmarked) [Compound 033, 3-Isopropyl-4-{5-[3-(4-morpholin-4-yl-pyrimidin-2-ylamino)-phenyl]-oxazol-2-yl}-piperazin-2-one]"
11,≤ 100,"CC1C(=O)NCCN1c1ncc(-c2cccc(Nc3nccc(C(F)(F)F)n3)c2)o1 (centres unmarked) [Compound 009, 3-Methyl-4-{5-[3-((4-trifluoromethyl)-pyrimidin-2-ylamino)-phenyl]-oxazol-2-yl}-piperazin-2-one]"
12,100 to 1000,"Cc1ccnc(Nc2cc(CN(C)C)cc(-c3cnc(N4CCNC(=O)C4(C)C)o3)c2)n1 [Compound 044, 4-{5-[3-Dimethylaminomethyl-5-(4-methyl-pyrimidin-2-ylamino)-phenyl]-oxazol-2-yl}-3,3-dimethyl-piperazin-2-one]"
13,≤ 100,"Cc1ccnc(Nc2cccc(-c3cnc(N4CCNC(=O)C4C)o3)c2)n1 (centres unmarked) [Compound 001, 3-Methyl-4-{5-[3-(4-methyl-pyrimidin-2-ylamino)-phenyl]-oxazol-2-yl}-piperazin-2-one]"
14,100 to 1000,"Cc1ccnc(Nc2cccc(-c3cnc(N4CCNC(=O)C4CCO)o3)c2)n1 (centres unmarked) [Compound 024, 3-(2-Hydroxy-ethyl)-4-{5-[3-(4-methyl-pyrimidin-2-ylamino)-phenyl]-oxazol-2-yl}-piperazin-2-one]"
15,≤ 100,"CCC1C(=O)NCCN1c1ncc(-c2cccc(Nc3nccc(C(F)(F)F)n3)c2)o1 (centres unmarked) [Compound 011, 3-Ethyl-4-{5-[3-((4-trifluoromethyl)-pyrimidin-2-ylamino)-phenyl]-oxazol-2-yl}-piperazin-2-one]"
